# Assay results taken from patent US20250090510A1, “eIF4G1-eIF1 INHIBITORS AND USE THEREOF” (YEDA RESEARCH AND DEVELOPMENT CO. LTD., priority 2022, published 2025).
# Tested on: near cognate start codon initiation in HEK293T cells
# Test: Firefly luciferase reporter with AUG or near cognate start codons
# Format: cell-based, human
# Conditions: 5 μM, 16 h
# Description: FIGS. 4A-L: The effect eIF1-eIF4G1 inhibition by i14G1-10 or i14G1-12 on global translation is linked to start codon stringency. (4A) HEK293T cells were treated with DMSO, i14G1-10 (20 μM), and i14G-20 (10 μM) for 3 h and then ribosome foot printing libraries were prepared, sequenced and analyzed as described in the scheme. The presented graphs show meta-gene analysis of the distribution of normalized reads in the coding region (CDS) and 5′UTR of all analyzed genes in DMSO (black), i14G1-10 (blue), and i14G1-12 (red). […] (4F) The translation efficiency of eIF1 in DMSO, i14G1-10 and i14G1-12 samples calculated from the Ribo-seq data. […] (4J) Scatter plots showing the translation efficiencies correlations (R2 >0.9) of all analyzed genes between the two independent replicate experiments with DMSO (vehicle control) (top), i14G1-10 (middle), and i14G1-12 (bottom). (4K) Scatter plots showing the translation efficiencies correlations between 5′UTR and CDS (Pearson's r >0.5) of all analyzed genes of two independent replicate experiments with i14G1-10 (left) and i14G1-12 (right).
# Reporter assays. […] The luminescence was measured on Turner Biosystems Luminometer.
# Next, the sequence context of the translation initiation site (TIS) in the ribosome footprints of the 5′UTR in DMSO, i14G1-10 or i14G1-12 samples was determined. To assign the 5′UTR TISs, the Hrr+CHX reads were used (see Materials and Methods). […]
row,SMILES,near cognate start codon reporter activities relative to AUG
1,O=C(/C=C/Sc1ccc(C(F)(F)F)cn1)c1ccccc1 [i14G1-10],"significantly enhanced the activities of ACG, CUG, GUG, and UUG relative to AUG"
2,Cn1ccnc1S/C(=C/C=C(C#N)C#N)c1ccc(Cl)cc1 [i14G1-12],"significantly enhanced the activities of ACG, CUG, GUG, and UUG relative to AUG"
